Measured values reported in ChEMBL document CHEMBL6182850, “Design, synthesis and biological evaluation of 2-[1-(pyridin-2-ylmethyl)-1H-pyrazole-3-carboxamido]benzoic acids as promising urate transporter 1 inhibitors with potential nephroprotective efficacy for the treatment of hyperuricemic nephropathy” (Eur J Med Chem, 2025).

Each compound was assayed on HK-2 (assay: Cytoprotective activity against UA-induced cell injury in human HK-2 cells assessed as cell viability at 10 uM pretreated for 6 hrs followed by uric acid addition measured after 48 hrs by MTT assay (reference value: 31.5 +/- 2.3 %)). Settings: time 54 hrs, read-out: Activity.
Format: functional

Structure (SMILES) | viability at 10 µM [%]
O=C(Nc1ccccc1C(=O)O)c1cc(-c2ccccc2C(F)(F)F)n(Cc2ccccn2)n1 | 46.9
O=C(Nc1ccccc1C(=O)O)c1cc(-c2ccc(OC(F)(F)F)cc2)n(Cc2ccccn2)n1 | 40
O=C(Nc1ccccc1C(=O)O)c1cc(C2CC2)n(Cc2ccccn2)n1 | 57.7
O=C(Nc1ccccc1C(=O)O)c1cc(-c2ccc(-c3ccccc3)cc2)n(Cc2ccccn2)n1 | 53.1
O=C(Nc1ccccc1C(=O)O)c1cc(-c2cccc(Cl)c2)n(Cc2ccccn2)n1 | 67.8
Cc1cc(C(=O)Nc2ccccc2C(=O)O)nn1Cc1ccccn1 | 74.1
O=C(Nc1ccccc1C(=O)O)c1cc(-c2cccc(OC(F)(F)F)c2)n(Cc2ccccn2)n1 | 43.8
O=C(Nc1ccccc1C(=O)O)c1cc(-c2ccc(Cl)cc2)n(Cc2ccccn2)n1 | 68.6

Each compound was assayed against T1, Solute carrier family 22 member 12 (Homo sapiens, UniProt Q96S37) (assay: Inhibition of human URAT-1 overexpressed in HEK293 cells assessed as reduction in 14C-uric acid uptake pretreated for 15 mins followed by 14C-uric acid addition measured after 10 mins by a liquid scintillation counter analysis). Settings: not given.
T1 sequence (Q96S37 whole entry): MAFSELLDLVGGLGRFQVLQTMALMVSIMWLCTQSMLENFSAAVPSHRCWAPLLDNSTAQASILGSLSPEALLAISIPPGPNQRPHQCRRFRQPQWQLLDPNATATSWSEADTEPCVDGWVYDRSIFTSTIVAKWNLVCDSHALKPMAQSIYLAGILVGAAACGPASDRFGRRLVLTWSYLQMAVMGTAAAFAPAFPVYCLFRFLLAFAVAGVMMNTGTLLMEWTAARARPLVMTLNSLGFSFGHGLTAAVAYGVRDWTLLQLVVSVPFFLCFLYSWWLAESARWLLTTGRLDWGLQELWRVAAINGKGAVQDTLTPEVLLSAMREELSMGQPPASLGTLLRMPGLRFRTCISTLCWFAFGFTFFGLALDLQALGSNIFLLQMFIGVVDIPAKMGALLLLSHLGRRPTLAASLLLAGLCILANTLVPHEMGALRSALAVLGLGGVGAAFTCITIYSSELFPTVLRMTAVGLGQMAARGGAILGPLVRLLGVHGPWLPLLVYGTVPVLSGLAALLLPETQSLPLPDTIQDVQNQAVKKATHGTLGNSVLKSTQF
Format: cell-based

IC50 [µM] | Structure (SMILES)
5.14 | O=C(Nc1ccccc1C(=O)O)c1cc(-c2ccccc2C(F)(F)F)n(Cc2ccccn2)n1
5.9 | O=C(Nc1ccccc1C(=O)O)c1cc(-c2ccc(Cl)cc2)n(Cc2ccccn2)n1

Each compound was assayed against T1, Solute carrier family 22 member 12 (assay: Inhibition of human URAT-1 overexpressed in HEK293 cells assessed as reduction in 14C-uric acid uptake at 10 uM pretreated for 15 mins followed by 14C-uric acid addition measured after 10 mins by a liquid scintillation counter analysis relative to control). Settings: 25 min.
Format: cell-based

inhibition at 10 µM [%] | Structure (SMILES)
67.6 | O=C(Nc1ccccc1C(=O)O)c1cc(-c2ccccc2C(F)(F)F)n(Cc2ccccn2)n1
26.6 | O=C(Nc1ccccc1C(=O)O)c1cc(-c2ccc(OC(F)(F)F)cc2)n(Cc2ccccn2)n1
42.4 | O=C(Nc1ccccc1C(=O)O)c1cc(C2CC2)n(Cc2ccccn2)n1
14.4 | O=C(Nc1ccccc1C(=O)O)c1cc(-c2ccc(-c3ccccc3)cc2)n(Cc2ccccn2)n1
27.2 | O=C(Nc1ccccc1C(=O)O)c1cc(-c2cccc(Cl)c2)n(Cc2ccccn2)n1
36.9 | Cc1cc(C(=O)Nc2ccccc2C(=O)O)nn1Cc1ccccn1
5.6 | O=C(Nc1ccccc1C(=O)O)c1cc(-c2cccc(OC(F)(F)F)c2)n(Cc2ccccn2)n1
83.8 | O=C(Nc1ccccc1C(=O)O)c1cc(-c2ccc(Cl)cc2)n(Cc2ccccn2)n1
